This assay has as its system A673 Ewing sarcoma viability, CellTiter-Glo ATP luminescence, 72 h. In words: EWS/Fli1-dependent A673 cell killing, confirmation, CellTiter-Glo luminescence, cherry-pick retest (AID 720587). (In general: Cellular ATP, detected with luciferase, serves as a proxy for viable cell number.)

Take `CCOc1cc2[nH]c(=S)n(Cc3ccc(C(=O)N4CCN(C)CC4)cc3)c(=O)c2cc1OCC`: the AC35 is 19.9 µM.

Regarding `CC1(C)Oc2cc3oc(-c4cc(O)cc(O)c4)cc3cc2CC1O` (stereo not drawn), the AC35 was 21.7 µM.

Regarding `CCCN1C(=O)/C(=C/c2nc3ccccc3c(=O)[nH]2)c2ccccc21`, the AC35 is 22 µM.

Consider `O=C1c2ccccc2C(=O)N1CCCCNc1ccccc1`, for which the AC35 is 10.8 µM.

As for `COc1ccc(/C=C/C(=O)c2ccc(C(=O)/C=C/c3ccc(OC)c(OC)c3)cc2)cc1OC`, the AC35 was 5.02 µM.

Consider `C[C@@H]1CN([C@H](C)CO)C(=O)c2cc(N(C)C)ccc2O[C@H]1CN(C)Cc1ccc(C(=O)Nc2ccccc2N)cc1`, for which the AC35 was 16.7 µM.

On to `CCCCCCCCn1c2c(c(=N)c3c1CCC3)CCCC2`, for which the AC35 is 5.07 µM.

As for `CN1c2ccc(-c3ccc(C#N)cc3)cc2[C@H]2[C@H](CCN2S(=O)(=O)c2cccc(F)c2)[C@H]1CO`, the AC35 was 3.45 µM.

For `COc1ccc(C2=Nn3c(nnc3-c3ccccc3F)SC2)cc1OC1CCOC1` (stereo not drawn), the AC35 is 13.5 µM.

Regarding `COC(=O)C[C@H]1CC[C@@H](NC(=O)Nc2ccc(C(F)(F)F)cc2)[C@H](CO)O1`, the AC35 was 18.9 µM.

For the molecule `Cc1nc2ncccn2c1-c1csc(Nc2ccc(O)cc2)n1`, the AC35 was 1.35 µM.

`CCN1C/C(=C/c2ccc(OC)c(O)c2)C(=O)/C(=C/c2ccc(OC)c(O)c2)C1`: the AC35 is 11.1 µM.

On to `COc1ccc(S(=O)(=O)N2CCCc3nc(-c4ccc(F)cc4)ccc32)cc1`, for which the AC35 was 5.35 µM.

As for `Nc1nc(=S)c2[nH]cnc2[nH]1`, the AC35 was 0.814 µM.

Regarding `CO[C@H]1CN(C)C(=O)c2ccc(NC(=O)c3ccc(-c4ccccc4)cc3)cc2OC[C@H](C)NC[C@H]1C`, the AC35 is 10.5 µM.

As to `C[C@@H]1O[C@@H](O[C@@H]2C=C3CC[C@@H]4C(CC[C@]5(C)[C@@H](c6ccc(=O)oc6)CC[C@]45O)[C@@]3(C)CC2)[C@H](O)[C@H](O)[C@H]1O` (stereo partly drawn), the AC35 was 0.0233 µM.

In the case of `C[C@@H]1CN([C@@H](C)CO)C(=O)c2cccc(N(C)C)c2O[C@@H]1CN(C)Cc1ccc(C(=O)Nc2ccccc2N)cc1`, the AC35 is 13.8 µM.

Turning to `O=C(O)c1ccc(N/N=C/c2ccc3nccnc3c2)cc1`, the AC35 is 15 µM.

For the molecule `S=c1[nH]nc(-c2cc(-c3ccccc3)n[nH]2)n1/N=C/C(Br)=C/c1ccccc1`, the AC35 was 5.5 µM.

`CC(=O)ON=C1C=CC(=C(C#N)c2ccccc2)C=C1`: the AC35 is 5.49 µM.

With `C[C@@H]1CN([C@H](C)CO)S(=O)(=O)c2ccc(C#CC(C)(C)O)cc2O[C@H]1CN(C)Cc1ccc(-c2ccccc2)cc1`, the AC35 was 7.19 µM.

As to `CCN1/C(=C/C=C/c2oc3ccc(-c4ccccc4)cc3[n+]2CC)Oc2ccc(-c3ccccc3)cc21`, the AC35 was 1.98 µM.

Regarding `Cc1cc(C)c2sc(NNC(=O)c3ccc(S(=O)(=O)N4CCc5ccccc5C4)cc3)nc2c1`, the AC35 is 1.19 µM.

In the case of `COC(=O)C[C@@H]1CC[C@@H]2[C@@H](COc3ccc(NC(=O)Nc4cccc(C#N)c4)cc3C(=O)N2C)O1`, the AC35 is 9.17 µM.

Regarding `C[C@H]1CN([C@@H](C)CO)C(=O)c2cc(NC(=O)C3CCCCC3)ccc2O[C@H]1CN(C)Cc1ccc(C(=O)Nc2ccccc2N)cc1`, the AC35 was 11.5 µM.

Take `CC1OC(OC2CC(O)C3(CO)C4C(O)CC5(C)C(C6=CC(=O)OC6)CCC5(O)C4CCC3(O)C2)C(O)C(O)C1O` (stereo not drawn): the AC35 is 0.105 µM.

With `Nc1nc(=S)c2ncn([C@@H]3O[C@H](CO)[C@@H](O)[C@H]3O)c2[nH]1`, the AC35 is 1.53 µM.

For `CC(C)(C)C(=O)Cn1ncc(Cl)c(Cl)c1=O`, the AC35 was 2.73 µM.

In the case of `O=C(NC1CCCC1)N1CCCCN2[C@@H](CO)[C@@H](c3ccc(/C=C/c4ccccc4)cc3)[C@@H]2C1`, the AC35 is 7.8 µM.

`N#CC(C#N)=C1C=CC=CN1/C(=C\c1ccco1)C(=O)c1ccc(Cl)cc1`: the AC35 was 3.04 µM.

`BrC(=C\c1ccccc1)/C=N/n1cnnc1`: the AC35 is 2.23 µM.

Turning to `Cc1cc(C)cc(N2C(=O)NC(=O)/C(=C\C=C\c3ccco3)C2=O)c1`, the AC35 was 3.84 µM.

`C[C@]12CC[C@H](O)C[C@H]1CC[C@@H]1C2CC[C@]2(C)[C@@H](C3=CC(=O)OC3)[C@@H](O)C[C@]12O` (stereo partly drawn): the AC35 is 5.27 µM.

Consider `COC(=O)C[C@H]1CC[C@H]2[C@@H](COc3ccc(NC(=O)Nc4cccc(Cl)c4)cc3C(=O)N2C)O1`, for which the AC35 is 14.7 µM.

For `C[C@@H]1O[C@@H](O[C@H]2C[C@@H](O)[C@]3(CO)[C@H]4[C@H](O)C[C@]5(C)[C@@H](C6COC(=O)C6)CC[C@]5(O)[C@@H]4CC[C@]3(O)C2)[C@H](O)[C@H](O)[C@H]1O` (stereo partly drawn), the AC35 was 2.06 µM.

For `Cc1noc(C)c1C(=O)Nc1sccc1C(N)=O`, the AC35 was 14.3 µM.

Regarding `Cc1ccc(C)c(S(=O)(=O)N2CCN(c3ncnc4sccc34)CC2)c1`, the AC35 was 5.35 µM.

As to `Cc1ccc(S(=O)(=O)N(C)C[C@@H]2Oc3cc(C#Cc4ccncc4)ccc3S(=O)(=O)N([C@@H](C)CO)C[C@H]2C)cc1`, the AC35 was 21.1 µM.

For `Cc1nc(N)nc(N)c1-c1ccc(Cl)c(Cl)c1`, the AC35 was 0.928 µM.

Turning to `OCC1OC(n2cnc3c(NCc4ccco4)ncnc32)C(O)C1O` (stereo not drawn), the AC35 was 4.04 µM.

`O=C(Nc1ccccc1F)N1CCCCN2[C@H](CO)[C@H](c3ccc(/C=C/c4ccccc4)cc3)[C@H]2C1`: the AC35 is 3.64 µM.

Take `CCOc1ccc(N=C2C(=O)Nc3ccc(C)c(Br)c32)cc1`: the AC35 is 20.7 µM.

Regarding `COc1cc(-c2cnc3c(NC=O)cc(-c4cccc(NC(C)=O)c4)cn23)cc(OC)c1OC`, the AC35 is 0.371 µM.

As for `C[C@@H]1CN([C@@H](C)CO)C(=O)Cc2cc(NS(=O)(=O)c3cccs3)ccc2O[C@H]1CN(C)Cc1ccc(Cl)c(Cl)c1`, the AC35 is 12.5 µM.

As to `CC(=O)Nc1cccc(-c2ccnc3c2CC(C)(C(=O)NCc2ccc(N(C)C)cc2)O3)c1` (stereo not drawn), the AC35 was 13.3 µM.

Regarding `O=c1c2ccccc2nc(/C=C/c2cc(Br)ccc2O)n1CCCO`, the AC35 was 9.12 µM.

For the molecule `C[C@@H]1CCCCO[C@H](CN(C)Cc2ccc(C(=O)Nc3ccccc3N)cc2)[C@@H](C)CN([C@H](C)CO)C(=O)c2cc(NS(=O)(=O)c3ccc(Cl)cc3)ccc2O1`, the AC35 is 14.3 µM.

Turning to `CN(C)CC1CCC/C(=C\c2ccc(OC(=O)c3ccc(Cl)cc3)cc2)C1=O` (stereo not drawn), the AC35 is 0.771 µM.

As for `O=c1[nH]c(/C=C2\C=Nc3ccccc32)c(O)n1Cc1ccccc1F`, the AC35 was 3.16 µM.

With `Nc1nc2cc3c(cc2cc1C(=O)NCCc1c[nH]c2ccccc12)OCO3`, the AC35 was 8.07 µM.

Regarding `CCOC(=O)[C@]12Cc3ccc(C)cc3[C@H]1N(C1CCCCC1)C(=O)c1ccccc12`, the AC35 is 5.01 µM.

Consider `Cc1ccc(S(=O)(=O)Nc2ccc3c(c2)C(=O)N([C@@H](C)CO)C[C@@H](C)[C@@H](CN(C)Cc2ccc(C(=O)Nc4ccccc4N)cc2)O3)cc1`, for which the AC35 was 9.91 µM.

Turning to `CC1=NN(c2ccc(C)cc2)C(=O)/C1=C\C=C\c1ccccc1`, the AC35 is 7.95 µM.

On to `CN(c1ccc(NC(=O)CCc2c[nH]c3ccccc23)cc1)c1ccccn1`, for which the AC35 was 9.08 µM.

As to `CN1C2CCC1/C(=C/c1ccccn1)C(=O)/C2=C\c1ccccn1`, the AC35 is 0.362 µM.

As to `COc1cc(/C=C/C(=O)CC(=O)/C=C/c2ccc(O)c(OC)c2)ccc1O`, the AC35 is 2.54 µM.

Consider `CCN1CCS/C1=C\C=C\C1=[N+](CC)CCS1`, for which the AC35 was 16.1 µM.

With `C[C@H](CO)N1C[C@H](C)[C@H](CN(C)Cc2ccc(C(=O)Nc3ccccc3N)cc2)Oc2ccc(NS(=O)(=O)c3cccs3)cc2C1=O`, the AC35 was 14.5 µM.

Values taken from PubChem BioAssay AID720587 (Broad Institute, 2013).
